± gives the standard deviation of the reports.
`*c1ccc2c(c1)C(CCCCCC)(CCCCCC)c1cc(-c3ccc4c(c3)c3cc(*)ccc3n4-c3ccccc3)ccc1-2` (repeat unit) gave a glass transition temperature of 170.00 °C. `*CC(c1ccccn1)C(c1ccccc1)C(*)c1ccccn1` (repeat unit) gave a glass transition temperature of 150.00 °C. Work on `*/C(C)=[C](/*)[Ge]([CH3])([CH3])[CH3]` (repeat unit) yielded a glass transition temperature of 250.00 °C. Work on `*Oc1ccc2cc(Oc3ccc(S(=O)(=O)c4ccc(*)cc4)cc3)ccc2c1` (repeat unit) yielded a glass transition temperature of 231.00 °C. Work on `*/C=C/C1CC(*)C2C(=O)N(c3ccccc3)C(=O)C12` (repeat unit) yielded a glass transition temperature of 220.00 °C. For `*c1ccc(N2C(=O)c3ccc(C(c4ccc5c(c4)C(=O)N(c4ccc(N6C(=O)c7ccc(-c8ccc9c(c8)C(=O)N(*)C9=O)cc7C6=O)cc4)C5=O)(C(F)(F)F)C(F)(F)F)cc3C2=O)cc1` (repeat unit), the glass transition temperature was 342.00 °C. `*CCN(CCOC(=O)Nc1ccc(C)c(NC(=O)O*)c1)c1ccc(-c2nc3ccc([N+](=O)[O-])cc3o2)cc1` (repeat unit) gave a glass transition temperature of 156.00 °C. Work on `*N=P(N=P(N=S(*)(=O)Nc1ccccc1)(Nc1ccccc1)Nc1ccccc1)(Nc1ccccc1)Nc1ccccc1` (repeat unit) yielded a glass transition temperature of 82.00 °C. Compound `*CC(*)C(=O)OCCCCCCCCCCOC(=O)c1ccc(OC(=O)c2ccc(C#N)cc2)cc1` (repeat unit) has a glass transition temperature of 15.00 °C. For `*c1ccc(Oc2ccc(N3C(=O)c4ccc(Oc5c(Oc6ccc7c(c6)C(=O)N(*)C7=O)cc(C(C)(C)C)cc5C(C)(C)C)cc4C3=O)cc2)cc1` (repeat unit), the glass transition temperature was 228.00 °C. `*CC(*)(C)C(=O)Oc1cc(C)ccc1C` (repeat unit) showed a glass transition temperature of 111.00 °C. With `*c1ccc(Oc2ccc(C(=O)c3ccc(C(=O)c4ccc(Oc5ccc(-c6nc7ccccc7n6-c6ccc(-n7c(*)nc8ccccc87)cc6)cc5)cc4)cc3)cc2)cc1` (repeat unit) the glass transition temperature was 238.00 °C. For `*C(=O)c1cc(C(=O)c2ccc3c(c2)C(=O)N(c2ccc(C(c4ccc(N5C(=O)c6ccc(*)cc6C5=O)cc4)(C(F)(F)F)C(F)(F)F)cc2)C3=O)cc(C(C)(C)C)c1` (repeat unit), the glass transition temperature was 267.50 °C. For `*OC(COc1ccccc1)CC(*)=O` (repeat unit), the glass transition temperature was 20.00 °C. For `*c1ccc(Oc2ccc(S(=O)(=O)c3ccc(Oc4ccc(-c5c6c(c(*)c7ccccc57)C(=O)N(c5cccc(C(F)(F)F)c5)C6=O)cc4)cc3)cc2)cc1` (repeat unit), the glass transition temperature was 280.50 °C. `*c1ccc(-c2sc(-c3cc(SCCCCCCCC)c(*)s3)cc2SCCCCCCCC)cc1` (repeat unit) gave a glass transition temperature of 55.30 °C. In the case of `*CC(C)(CC)COC(=O)CCCCCCCCC(=O)O*` (repeat unit), the glass transition temperature is reported as -69.00 °C. Work on `*CC(*)OC(=O)c1ccccc1` (repeat unit) yielded a glass transition temperature of 70.40 °C. Work on `*Oc1ccc(OC(=O)c2ccc(C(*)=O)cc2)cc1-c1cccc(C(F)(F)F)c1` (repeat unit) yielded a glass transition temperature of 155.80 °C. Compound `*CCN(*)C(=O)c1cc(F)ccc1F` (repeat unit) has a glass transition temperature of 112.00 °C. `*O[Si](*)(C)CCCCCCCCCCC(=O)Oc1ccc(-c2ccc(OC(=O)c3ccc(OCC(C)CC)cc3)cc2)cc1` (repeat unit) showed a glass transition temperature of 29.20 °C. `*Oc1ccc(C(=O)Nc2cc(C(c3ccc(C)c(NC(=O)c4ccc(OC(=O)c5cccc(C(*)=O)c5)cc4)c3)(C(F)(F)F)C(F)(F)F)ccc2C)cc1` (repeat unit) showed a glass transition temperature of 214.00 °C. `*Oc1ccc(Oc2ccc(C(=O)c3cccc(C(=O)c4ccc(*)cc4)c3)cc2)cc1S(=O)(=O)O` (repeat unit) showed a glass transition temperature of 195.00 °C. `*Nc1cc(NC(=O)c2cc(OCCN(C)c3ccc(C#N)cc3)cc(C(*)=O)c2)cc(C(=O)OCCN(C)c2ccc(C#N)cc2)c1` (repeat unit) showed a glass transition temperature of 167.00 °C. With `*Oc1ccc(C(C)(C)c2ccc(OC(*)=O)c(C)c2)cc1C` (repeat unit) the glass transition temperature was 124.00 °C. Compound `*CC(*)(C)C(=O)OCCC(C)(C)C` (repeat unit) [Poly(3,3-dimethylbutyl methacrylate)] has a glass transition temperature of 45 ± 1.2 °C. Compound `*CCCCCCc1ccc(-c2c(-c3ccccc3)cc(-c3cccc(-c4cc(-c5ccccc5)c(-c5ccc(*)cc5)c(-c5ccccc5)c4-c4ccccc4)c3)c(-c3ccccc3)c2-c2ccccc2)cc1` (repeat unit) has a glass transition temperature of 215.00 °C. Compound `*c1ccc(C(=O)OCCCCCCCCOc2ccc(/C=C3\CC/C(=C\c4ccc(OCCCCCCCCOC(=O)c5ccc(-c6nnc(*)o6)cc5)cc4)C3=O)cc2)cc1` (repeat unit) has a glass transition temperature of 99.00 °C. With `*CC(*)(C)C(=O)OCCCCCCOc1ccc(/N=N/c2ccncc2)cc1` (repeat unit) the glass transition temperature was 42.00 °C. In the case of `*CCCN(*)C(=O)c1ccccc1` (repeat unit), the glass transition temperature is reported as 72.00 °C. `*CC(*)CCc1ccccc1` (repeat unit) gave a glass transition temperature of 10.00 °C. For `*CO*` (repeat unit) [Polyoxymethylene ], the glass transition temperature was -56 ± 8.9 °C. With `*CCOCCOC(=O)c1ccccc1C(=O)O*` (repeat unit) the glass transition temperature was -50.00 °C. In the case of `*c1c(C)cc(Cc2cc(C)c(N3C(=O)c4ccc(Oc5c(C)cc(Cc6cc(C)c(Oc7ccc8c(c7)C(=O)N(*)C8=O)c(C)c6)cc5C)cc4C3=O)c(C)c2)cc1C` (repeat unit), the glass transition temperature is reported as 264.00 °C. `*Oc1ccccc1C(=O)OC(=O)c1ccccc1OC(=O)CCCCCCCCC(*)=O` (repeat unit) showed a glass transition temperature of 28.00 °C. In the case of `*CCN(*)C(=O)Cc1ccc(C(F)(F)F)cc1` (repeat unit), the glass transition temperature is reported as 75.00 °C. For `*c1cccc(C(=O)c2c(C)cc(C)c(N3C(=O)c4ccc(-c5ccc6c(c5)C(=O)N(*)C6=O)cc4C3=O)c2C)c1` (repeat unit), the glass transition temperature was 320.00 °C. In the case of `*/C=C(/*)c1c(C)cc(C(C)(C)C)cc1C` (repeat unit), the glass transition temperature is reported as 200.00 °C. `*CCC(C)(C)CC(C)CNC(=O)c1ccc(C(=O)N*)cc1` (repeat unit) gave a glass transition temperature of 148.00 °C. With `*OC(CC)CC(*)=O` (repeat unit) the glass transition temperature was -15.40 °C. Compound `*Oc1c(-c2ccccc2)cc(*)cc1-c1ccccc1` (repeat unit) has a glass transition temperature of 220.00 °C. Work on `*Oc1ccc(CC(NC(=O)Cc2ccc(OC(=O)CCC(*)=O)cc2)C(=O)OCC)cc1` (repeat unit) yielded a glass transition temperature of 75.50 °C. In the case of `*CCCCCCNC(=O)CCC1(CCC(=O)N*)c2ccccc2-c2ccccc21` (repeat unit), the glass transition temperature is reported as 122.00 °C. For `*CC#CC#CCOc1ccc(C(=O)OCCN(CCOC(=O)c2ccc(O*)cc2)c2ccc(/N=N/c3ccc(/N=N/c4cc(C)c(C#N)c(C)c4)cc3)cc2)cc1` (repeat unit), the glass transition temperature was 120.00 °C. Work on `*CC(*)C(=O)OCC(F)(F)C(F)(F)OC(F)(F)C(F)(F)C(F)(F)C(F)(F)F` (repeat unit) yielded a glass transition temperature of -68.00 °C. Work on `*Oc1ccc(/N=C(\C)c2ccc(Oc3ccc(C(c4ccccc4)(c4ccccc4)c4ccc(Oc5ccc(/C(C)=N/c6ccc(*)cc6)cc5)cc4)cc3)cc2)cc1` (repeat unit) yielded a glass transition temperature of 150.00 °C. With `*Oc1ccc(S(=O)(=O)c2ccc(Oc3ccc(C4(c5ccc(*)cc5)CC5CCC4C5)cc3)cc2)cc1` (repeat unit) the glass transition temperature was 250.00 °C. `*O[Si](*)(C)CCCOc1ccc(C(=O)Oc2ccc(OCCCCCC)cc2)cc1` (repeat unit) showed a glass transition temperature of 15.00 °C. Compound `*Sc1cccc(Sc2ccc(Sc3ccc(*)cc3)cc2)c1` (repeat unit) has a glass transition temperature of 69.00 °C.

From the PolyMetriX glass transition set
